In PubChem BioAssay (NCI):
“And” between values parts separate entries of the source, which are not always exact repeats. Identical values can stand only once.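 Cultured in 96-well plates, cells were exposed to test compound for 48 hours across five concentrations. The concentration for 50% growth inhibition is given as GI50. TGI marks complete inhibition of growth.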

Key:
Assay in all cases: NCI tumour cell line growth inhibition, 48 h
[1] = test system: CCRF-CEM leukemia
[2] = test system: HCC-2998 colon
[3] = test system: HOP-62 NSCLC
[4] = test system: HOP-92 NSCLC
[5] = test system: K-562 leukemia
[6] = test system: NCI-H23 lung
[7] = test system: SK-MEL-2 melanoma
[8] = test system: SNB-75 CNS
[9] = test system: SR leukemia
[10] = test system: U251 CNS

Structure (SMILES) | TGI [1] [µM] | TGI [2] [µM] | TGI [3] [µM] | TGI [4] [µM] | TGI [5] [µM] | TGI [6] [µM] | TGI [7] [µM] | TGI [8] [µM] | TGI [9] [µM] | TGI [10] [µM] | GI50 [1] [µM] | GI50 [2] [µM] | GI50 [3] [µM] | GI50 [4] | GI50 [5] [µM] | GI50 [6] [µM] | GI50 [7] [µM] | GI50 [8] [µM] | GI50 [9] [µM] | GI50 [10] [µM]
CC(=O)CCCCCCCCCCCC[C@@H]1CC[C@H](C)[C@H](O)N1 | > 100 | > 100 | > 100 | > 100 | > 100 | > 100 | > 100 | > 100 | > 100 | > 100 |  |  |  |  |  |  |  |  |  | 
Clc1ccc(-n2nnc(C3=NCCN3)c2-c2ccccc2)cc1 | > 100 | > 100 | > 100 | > 100 | > 100 | > 100 | > 100 | > 100 | > 100 | > 100 |  |  |  |  |  |  |  |  |  | 
COCCn1cc(-c2csc(-c3c[nH]c4ccccc34)n2)c2cccnc21 | > 100 | > 100 | > 100 | > 100 | > 100 | > 100 | > 100 | 24.7 | > 100 | > 100 | > 100 | 4.08 | 2.82 | 14.9 µM | 2.8 | 4.58 | 7.38 | 1.43 | 3.02 | 6.12
N#Cc1c(C(=O)c2ccccc2)cnn1-c1ccccc1 | > 25 | > 25 | > 25 | > 25 | > 25 | > 25 | > 25 | > 25 | > 25 | > 25 | > 25 | > 25 | > 25 | > 25 µM | > 25 | > 25 | > 25 | > 25 | > 25 | > 25
Clc1ccc(Cl)c2[s+]snc12 | > 100 | > 100 | > 100 | > 100 | > 67.9 | > 100 |  | > 100 | > 100 | > 100 |  |  |  |  |  |  |  |  |  | 
Cc1ccc(C(CN(C)C)C(=O)c2ccccc2)cc1 (stereo not given) | 10.6 | 20.2 | 27.5 | 5.38 | 7.82 | 26.7 | 15.8 | 14.8 | 6.47 | 12.8 | 0.442 | 6.62 | 12.2 | 2.07 µM | 1.37 | 10.5 | 4.45 | 2.58 | 1.03 | 3.4
C/C(O)=C(\N=O)C(=O)NCCc1ccccc1 | > 100 | > 100 | > 100 | > 100 | > 100 | > 100 | > 100 | > 100 | > 100 | > 100 |  |  |  |  |  |  |  |  |  | 
C[C@]12CCC3[C@@H](C[C@@H]4SC(Nc5ccccc5)=N[C@@]45CC(=O)CC[C@]35C)[C@@H]1CCC2=O (stereo not given in full) | > 100 | 44.8 | > 100 | 67.9 | > 100 | > 100 | 60.8 | 72.5 | > 100 | 19.3 | 2.84 | 18.2 | 22.4 | 18.7 µM | 2.79 | 18.1 | 17.1 | 5.4 | 2.58 | 4.41
COc1ccccc1-[n+]1cc(-c2ccc(-c3ccccc3)cc2)n2c1CCCCC2 | 23.9 | 12.6 | 15.4 | 1.97 | 13.1 | 10.1 | 2.22 | 13.4 | 24.1 | 15.7 | 0.224 | 0.318 | 1.29 | 0.184 µM | 0.173 | 0.101 | 0.237 | 0.325 | 0.304 | 0.383
Cc1ccc2c(c1)nc(C(=O)c1ccco1)c(C(F)(F)F)[n+]2[O-] | > 100 | > 100 | > 100 | > 100 | > 100 | > 100 | > 100 | > 100 | > 100 | > 100 | > 100 | > 100 | > 100 | 40.1 µM | 40.5 | 91.8 | > 100 | 76.7 | 64.4 | > 100
c1ccc(Cc2nc3ccc(Nc4ncnc5ccccc45)cc3[nH]2)cc1 | > 25 | > 25 | > 25 | > 25 | > 25 | > 25 | > 25 | > 25 | > 25 | > 25 | > 25 | > 25 | > 25 | 9.26 µM | > 25 | > 25 | > 25 | > 25 | > 25 | > 25
O=C(O)c1ccc2c(c1)Cc1cc([N+](=O)[O-])ccc1-2 | > 100 | > 100 | > 100 | > 100 | > 100 | > 100 | > 100 | > 100 | > 100 | > 100 |  |  |  |  |  |  |  |  |  | 
Cc1c(N=Nc2ccc([N+](=O)[O-])cc2)nc2scc(-c3ccccc3)n12 | > 73.4 | > 100 | > 100 | > 100 | > 100 | > 100 | > 100 | > 100 | 56.4 | > 100 |  |  |  |  |  |  |  |  |  | 
O=C(O)c1cc2ccccc2c(O)c1O | > 58.6 | 35.8 | 33 | > 54.9 | > 58.8 | 22.5 | 14.6 | 31.7 | > 79 | 31 |  |  |  |  |  |  |  |  |  | 
COc1ccc(/C=N/N=C(\N)NO)cc1OC | > 100 | > 100 | > 100 | > 100 | > 100 | > 100 | > 100 | > 100 | > 100 | > 100 |  |  |  |  |  |  |  |  |  | 
CCCCn1c2cc(OCc3cn(-c4ccc(Cl)cc4)nn3)ccc2c2ccnc(C)c21 | > 33.3 | 30.4 |  | 16.3 | > 33.3 | 26.6 | 22.5 | 13.1 | 22.4 | 12.6 | 9.27 | 9.58 |  | 4.22 µM | 2.89 | 7.23 | 7.82 | 5.09 | 5.2 | 5.66

Structure (SMILES) | TGI [1] [µM] | TGI [2] [µM] | TGI [3] [µM] | TGI [4] [µM] | TGI [5] [µM] | TGI [6] [µM] | TGI [7] [µM] | TGI [8] [µM] | TGI [9] [µM] | TGI [10] [µM] | GI50 [1] [µM] | GI50 [2] [µM] | GI50 [3] [µM] | GI50 [4] | GI50 [5] [µM] | GI50 [6] [µM] | GI50 [7] [µM] | GI50 [8] [µM] | GI50 [9] [µM] | GI50 [10] [µM]
Oc1ccc(/C=N\Nc2ccccn2)c(O)c1 | 8.71 | > 100 | 9.55 | > 100 | > 100 | > 100 | > 100 | 6.62 | 11.7 | > 100 | 1.01 | 3 | 2.14 | 5.02 µM | 0.482 | 0.783 | 9.43 | 1.46 | 0.311 | 0.773
C(=N\Nc1ccccn1)/c1ccccn1 | > 100 | 97.3 | > 100 | > 82.7 | > 100 | > 100 | > 100 | > 93.4 | > 100 | > 100 | 0.446 | 0.272 | 0.38 |  | 0.412 | 0.503 | > 100 | 0.665 | 0.367 | 0.445
O=C(/C=C/c1cccnc1)NCCCCC1CCN(C(=O)c2ccccc2)CC1 | > 100 | > 100 | > 100 | > 100 | > 100 | > 100 | > 100 | > 100 | > 100 | > 100 | < 0.01 |  | > 100 | 26.8 µM and > 32 µM | < 0.01 | > 100 | > 100 | > 73.6 |  | 
CCCC[C@H]1C(=O)O[C@H](C)[C@H](NC(=O)c2cccc(NC=O)c2O)C(=O)O[C@@H](C)[C@@H]1OC(=O)CC(C)C | 6.29 | 35.1 | 33.2 | 29.9 | 57.7 | 31.2 | 22.2 | 59.9 | 38.3 | 21.9 |  |  |  |  |  |  |  |  |  | 
O=C1C(Cl)=C(Cl)C(=O)N1C1C2CC3CC(C2)CC1C3 (stereo not given) | 64.7 | > 100 | > 100 | > 100 | > 92.2 | > 100 | > 100 | > 100 | > 100 | > 100 |  |  |  |  |  |  |  |  |  | 
Cc1ccc(C(=O)Nc2ccc(CN3CCN(C)CC3)c(C(F)(F)F)c2)cc1C#Cc1cnc(N)cc1C#N | 9.61 | 1.17 | 2.05 | 0.566 | 6.12 | 1.28 | 0.479 | 0.798 | 1.23 | 0.997 | 0.46 | 0.407 | 0.298 | 0.0496 µM | 0.005 | 0.34 | 0.108 | 0.112 | 0.162 | 0.222
C=C1C(=O)O[C@H]2[C@H]1CC/C(COC(=O)NCc1cc3ccccc3[nH]1)=C\CC[C@@]1(C)O[C@@H]21 | 3.36 | 3.67 | 23.3 | 2.98 | 9.18 | 5.18 | 7.25 | 19.2 | 8.75 | 16.4 | 0.443 | 2.02 | 10.3 | 1.29 µM | 1.63 | 2.16 | 2.46 | 3.91 | 2.32 | 4.59
Cc1cccc(C(C)(C)C)c1NC(=O)C(=O)C(C(=O)/C=C\c1ccccc1)C1OC(=O)c2ccccc21 (stereo not given) | > 100 | > 100 | > 100 | > 100 | > 100 | > 100 |  | > 100 | > 100 | > 100 |  |  |  |  |  |  |  |  |  | 
COC(=O)C(CCS(=O)(=O)CC(=O)C(=O)Nc1cccc(C(C)=O)c1)C(=O)OC | > 65.5 | > 100 | > 100 | > 100 | > 100 | > 100 | > 100 | > 100 | 50 | > 100 |  |  |  |  |  |  |  |  |  | 
C=C1[C@@H](C)[C@H]2[C@H](Cc3ccccc3)NC(=O)[C@]23OC(=O)/C=C/[C@H](O)CCC[C@@H](C)C/C=C/[C@H]3[C@@H]1O | 57.4 | > 100 | 15 | 4.23 | > 100 | 89.7 | 89.1 | 1.3 | > 100 | 57.8 |  |  |  |  |  |  |  |  |  | 
O=C(/C=C/c1ccc(OCC(=O)N2CCN(c3ccccc3)CC2)cc1)c1ccc(Cl)cc1 | > 100 | > 100 | 55.3 | 47.8 | > 100 | > 100 | 98.3 | 39.2 | > 100 | 46 |  |  |  |  |  |  |  |  |  | 
O=c1cccc(C#CC#C[C@H]2O[C@@H]2CO)o1 | 0.431 | 2.19 | 1.54 | 0.531 | > 100 | 1.21 | > 21 | 3.52 | > 100 | 0.958 | 0.17 | 0.788 | 0.423 | 0.285 µM | 0.182 | 0.347 | 5.53 | 1.89 | 0.24 | 0.355
[N-]=[N+]=NC(c1cn(C2CC(O)C(CO)O2)c(=O)[nH]c1=O)C(Br)I (stereo not given) | > 100 | > 100 | > 100 | > 100 | > 100 | > 100 | > 100 | > 100 | > 100 | > 100 |  |  |  |  |  |  |  |  |  | 
CCCCCCCCCC(=O)CC(=O)c1ccc(O)cc1O | > 100 | 46.3 | 46.5 | 79.4 | > 100 | 59.8 | 49.9 | 95.5 | 44.9 | 64.9 |  |  |  |  |  |  |  |  |  | 
O=C(O)CNc1c2ccccc2nc2ccccc12 | > 100 | > 100 |  | > 100 | > 100 | > 100 | > 100 | > 100 | > 100 | > 100 |  |  |  |  |  |  |  |  |  | 
CCCN(CCCCC(NC(C)=O)C(=O)NCc1ccccc1)C(=O)NCCCl (stereo not given) | > 100 | > 100 | > 100 | > 100 | > 100 | > 100 |  | > 100 | > 100 | > 100 |  |  |  |  |  |  |  |  |  | 
